Experimental data published in US7910622B2, “Modulation of bacterial quorum sensing with synthetic ligands” (Wisconsin Alumni Research Foundation, priority 2007, dated 2011).
Where two headings read alike, the source gives them in different places.

Columns and labels:
Assay in all cases: cell-based
TraR = biological target: T1, TraR (Agrobacterium tumefaciens, UniProt P33905); settings: for A. tumefaciens-TraR Activation [%]: 10 μM ligand; for A. tumefaciens-TraR Activation [%] / A. tumefaciens-TraR Inhibition [%] / inhibition at 10 µM: A. tumefaciens WCF47 (pCF372), normalized to OOHL; for A. tumefaciens-TraR Inhibition [%]: 10 μM synthetic ligand against 100 nM OOHL; for activation at 10 µM: read-out: A. tumefaciens-TraR Activation [%]; for inhibition at 10 µM: read-out: A. tumefaciens-TraR Inhibition [%], 10 μM synthetic ligand against 100 nM OOHL
T1 construct: These strains lack their AHL synthase (I) genes, but retain their native R genes; endogenous in cells; host or cells: A. tumefaciens WCF47 (Δ-traI) with PtraI-lacZ plasmid pCF372
T1 sequence (P33905 whole entry): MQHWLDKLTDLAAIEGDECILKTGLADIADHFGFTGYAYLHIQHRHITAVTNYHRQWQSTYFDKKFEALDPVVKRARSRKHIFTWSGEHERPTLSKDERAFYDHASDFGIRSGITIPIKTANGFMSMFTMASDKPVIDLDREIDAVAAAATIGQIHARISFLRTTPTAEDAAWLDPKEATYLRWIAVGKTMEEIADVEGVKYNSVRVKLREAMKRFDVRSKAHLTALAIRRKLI

LuxR [1] = biological target: T2, LuxR (Aliivibrio fischeri, UniProt P35327); assay type: cell-based, Vibrio fischeri; settings: for V. fischeri-LuxR Inhibition [%]: 5 μM synthetic ligand against 5 μM OHHL; for V. fischeri-LuxR Inhibition [%] / inhibition at 5 µM: V. fischeri ES114 (Δ-luxI), normalized to OHHL; for IC50: LuxR IC50, determined against 5 μM OHHL; for inhibition at 5 µM: read-out: V. fischeri-LuxR Inhibition [%], 5 μM synthetic ligand against 5 μM OHHL
T2 construct: a Δ-luxI derivative of V. fischeri ES114, in which the native lux operon behaves as the bioluminescent reporter; endogenous in cells; host or cells: V. fischeri ES114 (Δ-luxI)
T2 sequence (P35327 whole entry): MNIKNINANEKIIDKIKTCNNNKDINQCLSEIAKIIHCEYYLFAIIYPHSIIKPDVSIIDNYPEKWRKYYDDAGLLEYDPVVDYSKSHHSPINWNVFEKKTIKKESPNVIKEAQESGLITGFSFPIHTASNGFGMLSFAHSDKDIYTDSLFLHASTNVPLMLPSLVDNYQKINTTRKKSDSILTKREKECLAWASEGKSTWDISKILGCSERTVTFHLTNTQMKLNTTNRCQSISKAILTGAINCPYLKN
Summary of the method: (§1)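 Whole-cell luminescence reporter in V. fischeri ES114 (WT, Δ-luxI or Δ-luxR) or E. coli, overnight cultures diluted 1:10 and grown with compound at RT (E. coli 30° C) to OD600 0.35-0.4 (4-6 h). Luminescence normalized to cell density, triplicates; EC50/IC50 from sigmoidal fit.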

LuxR [2] = biological target: T2, LuxR; set-up: species or system Vibrio fischeri; settings: for activation at 200 µM: read-out: V. fischeri-LuxR Activation [%], 200 μM ligand; for activation at 200 µM / V. fischeri-LuxR Activation [%]: normalized to OHHL; for V. fischeri-LuxR Activation [%]: 200 μM ligand
Summary of the method: as §1

## 3-nitro PHL [B17]
TraR
  A. tumefaciens-TraR Activation [%]: 0%
  A. tumefaciens-TraR Inhibition [%]: 46%
LuxR [1]
  V. fischeri-LuxR Inhibition [%]: −15%
LuxR [2]; V. fischeri ES114 (Δ-luxI), read-out: LuxR EC50
  EC50: 350 nM
LuxR [2]; primary agonism assay, 200 μM, same concentration as OHHL
  luminescence induced higher than native ligand OHHL: 29%

## O=C(Cc1ccc(Br)cc1)N[C@H]1CCOC1=O [A17, 4-bromo-phenylacetanoyl HL, reference compound]
TraR
  IC50: 4730 nM
  A. tumefaciens-TraR Inhibition [%]: 88%
  activation at 10 µM: 1%
LuxR [1]
  V. fischeri-LuxR Inhibition [%]: 79%
LuxR [2]; V. fischeri ES114 (Δ-luxI)
  activation at 200 µM: 3%

## O=C(Cc1ccc(Br)cc1)N[C@H]1CCOC1=O [compound 8, N-(4-bromo-phenylacetanoyl)-L-homoserine lactone, reference compound]
TraR
  A. tumefaciens-TraR Activation [%]: 1%
  inhibition at 10 µM: ~90%
TraR; read-out: TraR IC50, determined against 100 nM OOHL
  IC50: 4730 nM
LuxR [1]
  IC50: 3700 nM
  inhibition at 5 µM: ~76%
LuxR [2]; V. fischeri ES114 (Δ-luxI)
  V. fischeri-LuxR Activation [%]: 3%

## O=C(CCCc1c[nH]c2ccccc12)N[C@H]1CCOC1=O [A18, indole AHL, reference compound]
TraR
  A. tumefaciens-TraR Activation [%]: 0%
  A. tumefaciens-TraR Inhibition [%]: 35%
LuxR [1]
  V. fischeri-LuxR Inhibition [%]: 72%
LuxR [2]; V. fischeri ES114 (Δ-luxI)
  V. fischeri-LuxR Activation [%]: 3%

## O=C(Cc1ccc(-c2ccccc2)cc1)NC1CCOC1=O (stereo not drawn) [B21, 4-phenyl PHL]
TraR
  activation at 10 µM: 0%
  inhibition at 10 µM: ~70%
LuxR [1]
  IC50: 1060 nM
  inhibition at 5 µM: ~70%
LuxR [2]; V. fischeri ES114 (Δ-luxI)
  activation at 200 µM: 7%

## O=C(Cc1ccc(-c2ccccc2)cc1)N[C@H]1CCOC1=O [C18, 4-phenyl PHL]
TraR; A. tumefaciens-TraR, Library C primary agonism screen
  Activation (%): 0%
TraR; A. tumefaciens-TraR, Library C primary antagonism screen
  Inhibition (%): 67%
TraR
  activation at 10 µM: 0%
  inhibition at 10 µM: ~70%
LuxR [1]
  IC50: 1060 nM
LuxR [1]; V. fischeri-LuxR, Library C primary antagonism screen
  Inhibition (%): 79%
LuxR [2]; V. fischeri-LuxR, Library C primary agonism screen
  Activation (%): 7%
LuxR [2]; V. fischeri ES114 (Δ-luxI)
  activation at 200 µM: 7%
